System: Jatropha curcas elongated shoots
Assay: in vitro rooting of elongated shoots
Assay type: cell-based
Settings: 4.9 μM in half strength Murashige & Skoog Basal Medium

**Q.** How did the root formation turn out when `O=C(O)CCCc1c[nH]c2ccccc12` [IBA, Indole-3-butyric acid] was run?
**A.** The root formation was “well-formed roots”.

Reference: patent US7932086B2, “Commercially viable process for in vitro mass culture of Jatropha curcas” (Reliance Life Sciences Pvt. Ltd., priority 2007, dated 2011)
